Laboratory results: paper PMC8795197, “Safety and activity of WX-0593 (Iruplinalkib) in patients with ALK- or ROS1-rearranged advanced non-small cell lung cancer: a phase 1 dose-escalation and dose-expansion trial” (Signal Transduction and Targeted Therapy, 2022)
Read-outs that look alike come from different tables or passages of the source.

Assays:
[1] = test system: advanced NSCLC patients with ALK or ROS1 rearrangement; assay: Phase 1 dose-escalation phase: antitumor activity (RECIST 1.1, investigators); assay type: in vivo, human
Experimental: The starting dose for WX-0593 was 30 mg, which was selected on the basis of preclinical toxicology studies (data unpublished), according to the International Conference on Harmonisation Guidance for Industry S9 Nonclinical Evaluation for Anticancer Pharmaceuticals.[30] Three patients were assigned to each dose level. In the dosing cohort of 30 mg, treatment included a single WX-0593 dose, followed by 7-day PK evaluation period, and subsequent daily oral dosing for continuous 21 days. In other dosing cohorts, WX-0593 was administered orally as a single dose in the 4-day PK run-in period, followed by dosing once per day in continuous 21-day cycles. The DLT observation period was the first cycle of WX-0593 treatment (the single-dose period and 21 days of multiple-dose period). Patients performed imaging evaluation at baseline, with computed tomography or magnetic resonance imaging of the chest, abdomen, pelvis, and brain. In the dose-escalation phase, the first efficacy evaluation was done after 3-week continuous administration of WX-0593 and every 6 weeks thereafter. […] If responses (CR or PR) were observed, repeat assessments were required to confirm the responses 4 weeks after the initial evaluation. […] AEs were assessed in all patients throughout this study and graded per the National Cancer Institute Common Terminology Criteria for Adverse Events version 4.03. In the dose-escalation phase, the primary endpoints were MTD, DLT, and safety assessed by investigators and the subsequent recommended dose of WX-0593. Safety parameters included TEAEs, SAEs, and TRAEs. The key secondary endpoints were PK parameters and preliminary antitumor activity of WX-0593. ORR was defined as the proportion of patients who had best overall response, including CR or PR. PFS was calculated from the date of the first dose of WX-0593 to the date of documented disease progression or death (whichever occurred first). DCR was defined as the proportion of patients who had best overall response, including CR, PR, or SD, with a duration of at least 12 weeks. TTP was calculated from the date when the first dose of WX-0593 was given to first documented disease progression. […] OS was calculated from the date when the first dose of WX-0593 was administered to the date of death from any cause. Safety analysis was performed in the SS, which was comprised of all patients treated with one dose of WX-0593 and with safety data recorded. Efficacy analysis was performed in the FAS, which was defined as all patients treated with at least one dose of WX-0593. The PK analysis set included all patients treated with at least one dose of WX-0593 and with at least one evaluable PK sample. […] Descriptive statistics were carried out to summarize patients’ baseline characteristics and safety. […] All time-to-event data (PFS, TTP, DOR, and OS) and their corresponding 95% CIs were estimated by Kaplan–Meier methods. PK parameter analyses were done with Phoenix WinNonlin version 8.0. All other statistical analyses were conducted using SAS version 9.4.

Ba/F3 = assay: Cell proliferation inhibition assay; assay type: cell-based
[2] = Absorption study (IV and oral PK); assay type: in vivo, cynomolgus monkeys; conditions: for bioavailability: read-out: absolute bioavailability
Experimental: Rats and cynomolgus monkeys were selected for the absorption studies based on the "Guidance on the non-clinical pharmacokinetics of medicinal products" (CFDA, 2014) and the in vitro study of species differences in liver microsomes and hepatocyte metabolism.
In general, within the range of 0.5 mg/kg–8 mg/kg, the systemic exposure in male cynomolgus monkeys increased proportionately with the dose, while increased slightly faster than the dose in female cynomolgus monkeys.

[3] = Repeated-dose toxicity study, 28 days oral gavage; assay type: in vivo, rats; conditions: for AUC(0-t): po, read-out: AUC0-24h (Day 28)
Experimental: The severely toxic dose in 10% of the animals (STD10) in rodents was > 30 mg/kg. At a dose of 10 mg/kg/day, AUC0-24h (Day 28) was 16800 h·ng/mL in males and 17300 h·ng/mL in females, which is 4.5 times and 4.7 times of the exposure at the effective dose in mice (2.5 mg/kg, AUC0-24h: 3700 h·ng/mL). At a dose of 30 mg/kg/day, AUC0-24h (Day 28) was 27100 h·ng/mL in males and 42400 h·ng/mL in females, which is 7.3 times and 11.5 times of the exposure at the effective dose in nude mice (2.5 mg/kg, AUC0-24h: 3700 h·ng/mL).

## COc1cc(N2CCC3(CCN(C)CC3)CC2)ccc1Nc1ncc(Cl)c(Nc2ccccc2P(C)(C)=O)n1 [WX-0593]
[1]; ALK TKI naive, dose: 30, 60, 90, 120, 180, 240, 300 mg, 30 mg
  ORR (n/N, 95%CI): 66.7% (2/3, 9.4-99.2%)
[1]; ALK TKI naive, dose: 30, 60, 90, 120, 180, 240, 300 mg, 90 mg
  ORR (n/N, 95%CI): 50.0% (1/2, 1.3-98.7%)
[1]; ALK TKI naive, dose: 30, 60, 90, 120, 180, 240, 300 mg, 120 mg
  ORR (n/N, 95%CI): 75.0% (6/8, 34.9-96.8%)
[1]; ALK TKI naive, dose: 30, 60, 90, 120, 180, 240, 300 mg, 180 mg
  ORR (n/N, 95%CI): 83.3% (5/6, 35.9-99.6%)
[1]; ALK TKI naive, dose: 30, 60, 90, 120, 180, 240, 300 mg, 240 mg
  ORR (n/N, 95%CI): 60.0% (3/5, 14.7-94.7%)
[1]; ALK TKI naive, dose: 30, 60, 90, 120, 180, 240, 300 mg, 300 mg
  ORR (n/N, 95%CI): 100.0% (1/1, 2.5-100.0%)
[1]; ALK-rearranged patients
  DCR: 89.1%
[1]; ALK-rearranged patients, total
  ORR (n/N, 95%CI): 63.0%
[1]; ALK-rearranged, ALK TKI naive, dose: 30, 60, 90, 120, 180, 240, 300 mg, 30 mg
  ORR (n/N, 95%CI): 100% (2/2, 15.8-100%)
[1]; ALK-rearranged, ALK TKI naive, dose: 30, 60, 90, 120, 180, 240, 300 mg, 60 mg
  ORR (n/N, 95%CI): 66.7% (2/3, 9.4-99.2%)
[1]; ALK-rearranged, ALK TKI naive, dose: 30, 60, 90, 120, 180, 240, 300 mg, 120 mg
  ORR (n/N, 95%CI): 85.7% (6/7, 42.1-99.6%)
[1]; ALK-rearranged, ALK TKI naive, dose: 30, 60, 90, 120, 180, 240, 300 mg, 180 mg
  ORR (n/N, 95%CI): 75.0% (3/4, 19.4-99.4%)
[1]; ALK-rearranged, ALK TKI naive, dose: 30, 60, 90, 120, 180, 240, 300 mg, 300 mg
  ORR (n/N, 95%CI): 100% (1/1, 2.5-100%)
[1]; ALK-rearranged, crizotinib and other ALK TKIs, dose: 30, 60, 90, 120, 180, 240, 300 mg, 120 mg
  ORR (n/N, 95%CI): 100% (1/1, 2.5-100%)
[1]; ALK-rearranged, crizotinib and other ALK TKIs, total
  ORR (n/N, 95%CI): 100% (3/3, 29.2- 100%)
[1]; ALK-rearranged, crizotinib only, total
  ORR (n/N, 95%CI): 40.0% (8/20, 19.1-63.9%)
[1]; ROS1-rearranged patients
  DCR: 80.0%
[1]; ROS1-rearranged, crizotinib and other ALK TKIs, dose: 30, 60, 90, 120, 180, 240, 300 mg, 90 mg
  ORR (n/N, 95%CI): 0% (0/1, 0-97.5%)
[1]; ROS1-rearranged, crizotinib and other ALK TKIs, total
  ORR (n/N, 95%CI): 0% (0/2, 0-84.2%)
[1]; ROS1-rearranged, crizotinib only, dose: 30, 60, 90, 120, 180, 240, 300 mg, 90 mg
  ORR (n/N, 95%CI): 0% (0/1, 0-97.5%)
[1]; ROS1-rearranged, crizotinib only, total
  ORR (n/N, 95%CI): 0% (0/3, 0-70.8%)
[1]; ROS1 rearrangement, crizotinib-naive (n = 7)
  median PFS: 3.65 months
[1]; baseline CNS metastasis, total
  ORR (n/N, 95%CI): 9.1% (2/22, 1.1-29.2%)
[1]; baseline measurable CNS metastasis, total
  ORR (n/N, 95%CI): 33.3% (2/6,4.3-77.7%)
[1]; prior crizotinib and other ALK TKI, dose: 30, 60, 90, 120, 180, 240, 300 mg, 120 mg
  ORR (n/N, 95%CI): 100% (1/1, 2.5-100%)
[1]; prior crizotinib and other ALK TKI, total
  ORR (n/N, 95%CI): 100% (3/3, 29.2-100%)
[1]; total (n=54)
  DOR, median (95% CI): 10.87 (10.87, NR) mo
  PFS, median (95% CI): 11.89 (5.03, 11.89) mo
  TTP, median (95% CI): 11.89 (6.44, 11.89) mo
Ba/F3
  IC50 relative to ALK-related cells: significantly higher
[2]; both sexes, cynomolgus monkey, plasma, oral gavage 0.5–8 mg/kg
  Tmax: 2 to 3.33 h
[2]; both sexes, cynomolgus monkey, plasma, oral gavage 0.5–8 mg/kg, read-out: plasma terminal half-life
  half-life: 3.29 to 8.14 h
[2]; both sexes, cynomolgus monkey, plasma, single IV 0.5 mg/kg, read-out: AUC0-24h
  AUC(0-t): 323 ± 91.1 ng·h/mL
[2]; both sexes, cynomolgus monkey, plasma, single IV 0.5 mg/kg, read-out: apparent volume of distribution (Vdss)
  Vd: 7.7 ± 1.24 L/kg
[2]; both sexes, cynomolgus monkey, plasma, single IV 0.5 mg/kg, read-out: mean residence time (MRT0-inf)
  MRT inf: 5.03 ± 138 h
[2]; both sexes, cynomolgus monkey, plasma, single IV 0.5 mg/kg, read-out: plasma clearance (CL)
  clearance: 26.8 ± 6.82 mL/min/kg
[2]; both sexes, cynomolgus monkey, plasma, single IV 0.5 mg/kg, read-out: plasma elimination half-life T1/2 (converted)
  half-life: 4.37 ± 2.38 h
[2]; both sexes, cynomolgus monkey, plasma, single oral 0.5 mg/kg
  bioavailability: 37.5%
[2]; both sexes, cynomolgus monkey, plasma, single oral 8 mg/kg
  bioavailability: 74.7%
[2]; oral 2 mg/kg, 7 consecutive days
  drug accumulation: no significant drug accumulation
[2]; single oral 2 mg/kg
  absolute bioavailability: 46.6%
[3]; 10 mg/kg/day, females
  exposure as multiple of that at the effective dose in mice: 4.7 times
[3]; 10 mg/kg/day, males
  exposure as multiple of that at the effective dose in mice: 4.5 times
[3]; 30 mg/kg/day, females
  exposure as multiple of that at the effective dose in nude mice: 11.5 times
[3]; 30 mg/kg/day, males
  exposure as multiple of that at the effective dose in nude mice: 7.3 times
[3]; 1/10 of rat STD10, 60 kg/person
  human equivalent dose: 29 mg/person
[3]; 28 days oral gavage
  severely toxic dose in 10% of the animals (STD10): > 30 mg/kg
[3]; female, rat, in vivo, 10 mg/kg/day, females
  AUC(0-t): 17300 ng·h/mL
[3]; female, rat, in vivo, 30 mg/kg/day, females
  AUC(0-t): 42400 ng·h/mL
[3]; male, rat, in vivo, 10 mg/kg/day, males
  AUC(0-t): 16800 ng·h/mL
[3]; male, rat, in vivo, 30 mg/kg/day, males
  AUC(0-t): 27100 ng·h/mL
[3]; rat, in vivo, 28 days oral gavage
  NOAEL at 28 days: 10 mg/kg/day
